From ChEMBL document CHEMBL3352110, “Design, synthesis and in vitro evaluation of novel dehydroabietic acid derivatives containing a dipeptide moiety as potential anticancer agents” (Eur J Med Chem, 2015)

System: NCI-H460
Assay: Cytotoxicity against human NCI-H460 cells after 48 hrs by MTT assay
Assay type: functional, cell-based
Conditions: NCI-H460, 48 h

| SMILES | IC50 |
| --- | --- |
| COc1cc(NC(=O)[C@@H](Cc2ccccc2)NC(=O)[C@]2(C)CCC[C@]3(C)c4ccc(C(C)C)cc4C(=O)C[C@@H]23)cc(OC)c1OC | 27.9 µM |
| COc1cc(NC(=O)[C@H](Cc2ccccc2)NC(=O)[C@]2(C)CCC[C@]3(C)c4ccc(C(C)C)cc4C(=O)C[C@@H]23)cc(OC)c1OC | 54.6 µM |
| CC(C)c1ccc2c(c1)/C(=N\O)C[C@H]1[C@](C)(C(=O)N[C@@H](Cc3ccccc3)C(=O)Nc3ccc(Cl)cc3)CCC[C@]21C | 102 µM |
| CC(C)c1ccc2c(c1)C(=O)C[C@H]1[C@](C)(C(=O)N[C@@H](Cc3ccccc3)C(=O)Nc3ccc(F)cc3)CCC[C@]21C | 61.6 µM |
| CC(C)c1ccc2c(c1)/C(=N\O)C[C@H]1[C@](C)(C(=O)N[C@H](Cc3ccccc3)C(=O)Nc3ccccc3Cl)CCC[C@]21C | 26.9 µM |
| CC(C)c1ccc2c(c1)/C(=N\O)C[C@H]1[C@](C)(C(=O)N[C@H](Cc3ccccc3)C(=O)Nc3ccc(Cl)cc3)CCC[C@]21C | 17.6 µM |
| CC(C)c1ccc2c(c1)C(=O)C[C@H]1[C@](C)(C(=O)N[C@H](Cc3ccccc3)C(=O)Nc3ccc(Cl)cc3)CCC[C@]21C | 23.4 µM |
| CC(C)c1ccc2c(c1)C(=O)C[C@H]1[C@](C)(C(=O)N[C@@H](Cc3ccccc3)C(=O)Nc3ccc(Cl)cc3)CCC[C@]21C | 49.1 µM |
| CC(C)c1ccc2c(c1)/C(=N\O)C[C@H]1[C@](C)(C(=O)N[C@@H](Cc3ccccc3)C(=O)Nc3ccc(F)cc3)CCC[C@]21C | 23.4 µM |
| CC(C)c1ccc2c(c1)/C(=N\O)C[C@H]1[C@](C)(C(=O)N[C@@H](Cc3ccccc3)C(=O)Nc3ccccc3F)CCC[C@]21C | 44.8 µM |
| CC(C)c1ccc2c(c1)/C(=N\O)C[C@H]1[C@](C)(C(=O)N[C@@H](Cc3ccccc3)C(=O)Nc3ccccc3)CCC[C@]21C | 41.3 µM |
| CC(C)c1ccc2c(c1)C(=O)C[C@H]1[C@](C)(C(=O)N[C@@H](Cc3ccccc3)C(=O)Nc3ccccc3F)CCC[C@]21C | 57.1 µM |
| COc1ccccc1NC(=O)[C@H](Cc1ccccc1)NC(=O)[C@]1(C)CCC[C@]2(C)c3ccc(C(C)C)cc3/C(=N\O)C[C@@H]12 | 31 µM |
| CC(C)c1ccc2c(c1)C(=O)C[C@H]1[C@](C)(C(=O)N[C@H](Cc3ccccc3)C(=O)Nc3ccccc3)CCC[C@]21C | 51.9 µM |
| COc1ccc(NC(=O)[C@H](Cc2ccccc2)NC(=O)[C@]2(C)CCC[C@]3(C)c4ccc(C(C)C)cc4C(=O)C[C@@H]23)cc1 | > 100 µM |

System: MGC-803
Assay: Cytotoxicity against human MGC803 cells after 48 hrs by MTT assay
Assay type: functional, cell-based
Conditions: MGC-803, 48 h

| SMILES | IC50 |
| --- | --- |
| COc1cc(NC(=O)[C@@H](Cc2ccccc2)NC(=O)[C@]2(C)CCC[C@]3(C)c4ccc(C(C)C)cc4C(=O)C[C@@H]23)cc(OC)c1OC | 26.4 µM |
| COc1cc(NC(=O)[C@H](Cc2ccccc2)NC(=O)[C@]2(C)CCC[C@]3(C)c4ccc(C(C)C)cc4C(=O)C[C@@H]23)cc(OC)c1OC | 21.3 µM |
| CC(C)c1ccc2c(c1)/C(=N\O)C[C@H]1[C@](C)(C(=O)N[C@@H](Cc3ccccc3)C(=O)Nc3ccc(Cl)cc3)CCC[C@]21C | 25.8 µM |
| CC(C)c1ccc2c(c1)C(=O)C[C@H]1[C@](C)(C(=O)N[C@@H](Cc3ccccc3)C(=O)Nc3ccc(F)cc3)CCC[C@]21C | 20.1 µM |
| CC(C)c1ccc2c(c1)/C(=N\O)C[C@H]1[C@](C)(C(=O)N[C@H](Cc3ccccc3)C(=O)Nc3ccccc3Cl)CCC[C@]21C | 17 µM |
| CC(C)c1ccc2c(c1)/C(=N\O)C[C@H]1[C@](C)(C(=O)N[C@H](Cc3ccccc3)C(=O)Nc3ccc(Cl)cc3)CCC[C@]21C | 17.8 µM |
| CC(C)c1ccc2c(c1)C(=O)C[C@H]1[C@](C)(C(=O)N[C@H](Cc3ccccc3)C(=O)Nc3ccc(Cl)cc3)CCC[C@]21C | 20.2 µM |
| CC(C)c1ccc2c(c1)C(=O)C[C@H]1[C@](C)(C(=O)N[C@@H](Cc3ccccc3)C(=O)Nc3ccc(Cl)cc3)CCC[C@]21C | 29 µM |
| CC(C)c1ccc2c(c1)/C(=N\O)C[C@H]1[C@](C)(C(=O)N[C@@H](Cc3ccccc3)C(=O)Nc3ccc(F)cc3)CCC[C@]21C | 24.4 µM |
| CC(C)c1ccc2c(c1)/C(=N\O)C[C@H]1[C@](C)(C(=O)N[C@@H](Cc3ccccc3)C(=O)Nc3ccccc3F)CCC[C@]21C | 17.8 µM |
| CC(C)c1ccc2c(c1)/C(=N\O)C[C@H]1[C@](C)(C(=O)N[C@@H](Cc3ccccc3)C(=O)Nc3ccccc3)CCC[C@]21C | 16 µM |
| CC(C)c1ccc2c(c1)C(=O)C[C@H]1[C@](C)(C(=O)N[C@@H](Cc3ccccc3)C(=O)Nc3ccccc3F)CCC[C@]21C | 18.9 µM |
| COc1ccccc1NC(=O)[C@H](Cc1ccccc1)NC(=O)[C@]1(C)CCC[C@]2(C)c3ccc(C(C)C)cc3/C(=N\O)C[C@@H]12 | 11.9 µM |
| CC(C)c1ccc2c(c1)C(=O)C[C@H]1[C@](C)(C(=O)N[C@H](Cc3ccccc3)C(=O)Nc3ccccc3)CCC[C@]21C | 30.5 µM |
| COc1ccc(NC(=O)[C@H](Cc2ccccc2)NC(=O)[C@]2(C)CCC[C@]3(C)c4ccc(C(C)C)cc4C(=O)C[C@@H]23)cc1 | 49 µM |

System: not listed separately
Assay: Cytotoxicity against human HL7702 cells after 48 hrs by MTT assay
Assay type: functional, cell-based
Conditions: L02, 48 h

| SMILES | IC50 |
| --- | --- |
| COc1cc(NC(=O)[C@@H](Cc2ccccc2)NC(=O)[C@]2(C)CCC[C@]3(C)c4ccc(C(C)C)cc4C(=O)C[C@@H]23)cc(OC)c1OC | 57.4 µM |
| COc1cc(NC(=O)[C@H](Cc2ccccc2)NC(=O)[C@]2(C)CCC[C@]3(C)c4ccc(C(C)C)cc4C(=O)C[C@@H]23)cc(OC)c1OC | 69.5 µM |
| CC(C)c1ccc2c(c1)/C(=N\O)C[C@H]1[C@](C)(C(=O)N[C@@H](Cc3ccccc3)C(=O)Nc3ccc(Cl)cc3)CCC[C@]21C | 60.8 µM |
| CC(C)c1ccc2c(c1)C(=O)C[C@H]1[C@](C)(C(=O)N[C@@H](Cc3ccccc3)C(=O)Nc3ccc(F)cc3)CCC[C@]21C | 66.5 µM |
| CC(C)c1ccc2c(c1)/C(=N\O)C[C@H]1[C@](C)(C(=O)N[C@H](Cc3ccccc3)C(=O)Nc3ccccc3Cl)CCC[C@]21C | 48.2 µM |
| CC(C)c1ccc2c(c1)/C(=N\O)C[C@H]1[C@](C)(C(=O)N[C@H](Cc3ccccc3)C(=O)Nc3ccc(Cl)cc3)CCC[C@]21C | 57.9 µM |
| CC(C)c1ccc2c(c1)C(=O)C[C@H]1[C@](C)(C(=O)N[C@H](Cc3ccccc3)C(=O)Nc3ccc(Cl)cc3)CCC[C@]21C | 76.3 µM |
| CC(C)c1ccc2c(c1)C(=O)C[C@H]1[C@](C)(C(=O)N[C@@H](Cc3ccccc3)C(=O)Nc3ccc(Cl)cc3)CCC[C@]21C | 57.8 µM |
| CC(C)c1ccc2c(c1)/C(=N\O)C[C@H]1[C@](C)(C(=O)N[C@@H](Cc3ccccc3)C(=O)Nc3ccc(F)cc3)CCC[C@]21C | 49.7 µM |
| CC(C)c1ccc2c(c1)/C(=N\O)C[C@H]1[C@](C)(C(=O)N[C@@H](Cc3ccccc3)C(=O)Nc3ccccc3F)CCC[C@]21C | 57.5 µM |
| CC(C)c1ccc2c(c1)/C(=N\O)C[C@H]1[C@](C)(C(=O)N[C@@H](Cc3ccccc3)C(=O)Nc3ccccc3)CCC[C@]21C | 45.9 µM |
| CC(C)c1ccc2c(c1)C(=O)C[C@H]1[C@](C)(C(=O)N[C@@H](Cc3ccccc3)C(=O)Nc3ccccc3F)CCC[C@]21C | 47.6 µM |
| COc1ccccc1NC(=O)[C@H](Cc1ccccc1)NC(=O)[C@]1(C)CCC[C@]2(C)c3ccc(C(C)C)cc3/C(=N\O)C[C@@H]12 | 58.8 µM |
| CC(C)c1ccc2c(c1)C(=O)C[C@H]1[C@](C)(C(=O)N[C@H](Cc3ccccc3)C(=O)Nc3ccccc3)CCC[C@]21C | 53.3 µM |
| COc1ccc(NC(=O)[C@H](Cc2ccccc2)NC(=O)[C@]2(C)CCC[C@]3(C)c4ccc(C(C)C)cc4C(=O)C[C@@H]23)cc1 | 59.6 µM |

System: HeLa
Assay: Cytotoxicity against human HeLa cells after 48 hrs by MTT assay
Assay type: functional, cell-based
Conditions: not given

| SMILES | IC50 |
| --- | --- |
| COc1cc(NC(=O)[C@@H](Cc2ccccc2)NC(=O)[C@]2(C)CCC[C@]3(C)c4ccc(C(C)C)cc4C(=O)C[C@@H]23)cc(OC)c1OC | 19.2 µM |
| COc1cc(NC(=O)[C@H](Cc2ccccc2)NC(=O)[C@]2(C)CCC[C@]3(C)c4ccc(C(C)C)cc4C(=O)C[C@@H]23)cc(OC)c1OC | 49.6 µM |
| CC(C)c1ccc2c(c1)/C(=N\O)C[C@H]1[C@](C)(C(=O)N[C@@H](Cc3ccccc3)C(=O)Nc3ccc(Cl)cc3)CCC[C@]21C | 101 µM |
| CC(C)c1ccc2c(c1)C(=O)C[C@H]1[C@](C)(C(=O)N[C@@H](Cc3ccccc3)C(=O)Nc3ccc(F)cc3)CCC[C@]21C | 63.5 µM |
| CC(C)c1ccc2c(c1)/C(=N\O)C[C@H]1[C@](C)(C(=O)N[C@H](Cc3ccccc3)C(=O)Nc3ccccc3Cl)CCC[C@]21C | 26.6 µM |
| CC(C)c1ccc2c(c1)/C(=N\O)C[C@H]1[C@](C)(C(=O)N[C@H](Cc3ccccc3)C(=O)Nc3ccc(Cl)cc3)CCC[C@]21C | 20.2 µM |
| CC(C)c1ccc2c(c1)C(=O)C[C@H]1[C@](C)(C(=O)N[C@H](Cc3ccccc3)C(=O)Nc3ccc(Cl)cc3)CCC[C@]21C | 32.3 µM |
| CC(C)c1ccc2c(c1)C(=O)C[C@H]1[C@](C)(C(=O)N[C@@H](Cc3ccccc3)C(=O)Nc3ccc(Cl)cc3)CCC[C@]21C | 36 µM |
| CC(C)c1ccc2c(c1)/C(=N\O)C[C@H]1[C@](C)(C(=O)N[C@@H](Cc3ccccc3)C(=O)Nc3ccc(F)cc3)CCC[C@]21C | 20.7 µM |
| CC(C)c1ccc2c(c1)/C(=N\O)C[C@H]1[C@](C)(C(=O)N[C@@H](Cc3ccccc3)C(=O)Nc3ccccc3F)CCC[C@]21C | 34.1 µM |
| CC(C)c1ccc2c(c1)/C(=N\O)C[C@H]1[C@](C)(C(=O)N[C@@H](Cc3ccccc3)C(=O)Nc3ccccc3)CCC[C@]21C | 16 µM |
| CC(C)c1ccc2c(c1)C(=O)C[C@H]1[C@](C)(C(=O)N[C@@H](Cc3ccccc3)C(=O)Nc3ccccc3F)CCC[C@]21C | 18.9 µM |
| COc1ccccc1NC(=O)[C@H](Cc1ccccc1)NC(=O)[C@]1(C)CCC[C@]2(C)c3ccc(C(C)C)cc3/C(=N\O)C[C@@H]12 | 19.3 µM |
| CC(C)c1ccc2c(c1)C(=O)C[C@H]1[C@](C)(C(=O)N[C@H](Cc3ccccc3)C(=O)Nc3ccccc3)CCC[C@]21C | 57.8 µM |
| COc1ccc(NC(=O)[C@H](Cc2ccccc2)NC(=O)[C@]2(C)CCC[C@]3(C)c4ccc(C(C)C)cc4C(=O)C[C@@H]23)cc1 | 52.3 µM |
